Measured values from patent publication US9309213B2, “C-3 substituted bicyclooctane based HIV protease inhibitors” (Purdue Research Foundation, priority 2011, dated 2016).
Several values for one entry are separate records, joined by “and”; a condition that tells them apart may be missing. Equal entries are not always repeated. Where two headings read alike, the source gives them in different places.

Assays:
[1] = tested on: HIV-1LAI; assay: In vitro antiviral assay, MT-2 cells exposed to HIV-1LAI, MTT assay; format: cell-based; conditions: for loss of antiviral activity (higher IC50) compared to 22: relative to inhibitor 22
[2] = target: T1, HIV-1 protease (Human immunodeficiency virus type 1 group M subtype B, UniProt P04585); assay: HIV-1 protease enzyme inhibitory assay (protocol of Toth and Marshall); format: biochemical
T1 construct: The HIV aspartic protease plays a central role in the life cycle of the virus; It cleaves the virally encoded polyprotein
Description: Inhibitors were designed to make additional interactions in the S2-subsite of the protease, especially with the Gly48 backbone atoms in the flap region of the enzyme. All inhibitors in Table 1 were first evaluated in the enzyme inhibitory assay developed by Toth and Marshall (Toth and Marshall, Int. J. Pept. Protein Res. 1990, 36, 544-550). […] The 3-(S)-hydroxy Cp-THF ligand was also investigated in combination with other sulfonamide substituents.
All inhibitors were first tested for their enzyme inhibitory potency using the assay protocol developed by Toth and Marshall.

[3] = tested on: HIV-1MDR/G; assay: microbe, parasite or virus in culture; format: cell-based; conditions: for IC50: Human immunodeficiency virus 1, read-out: IC50 ± SDs
[4] = tested on: HIV-1ERS104pre (wild type); assay: Antiviral assay in PHA-PBMs, inhibition of p24 Gag protein production, wild-type isolate; format: cell-based
[5] = tested on: HIV-1MDR/C; assay: microbe, parasite or virus in culture; format: cell-based; conditions: for IC50: Human immunodeficiency virus 1, read-out: IC50 ± SDs
[6] = tested on: HIV-1MDR/TM; assay: microbe, parasite or virus in culture; format: cell-based; conditions: for IC50: Human immunodeficiency virus 1, read-out: IC50 ± SDs
[7] = tested on: HIV-1MDR/B; assay: microbe, parasite or virus in culture; format: cell-based; conditions: for IC50: Human immunodeficiency virus 1, read-out: IC50 ± SDs
[8] = Human immunodeficiency virus 1, MT2, Table 1, MT-2 cells, 100 TCID50s of HIV-1LAI, MTT assay, means of at least two experiments
[9] = read-out: Ki / enzyme inhibitory potency
[10] = Human immunodeficiency virus 1, MT2, read-out: ID50, Table 2, antiviral activity
[11] = Human immunodeficiency virus 1, MT2, read-out: antiviral IC50

CC(C)CN(C[C@@H](O)[C@H](Cc1ccccc1)NC(=O)O[C@@H]1C[C@@H]2[C@H](O)CO[C@@H]2C1)S(=O)(=O)c1ccc(N)cc1 [drawing 10] showed an IC50 [1, 8] of 25 nM and a Ki ([2]; Table 1, read-out: Ki) of 0.079 nM.

With CC(C)CN(C[C@@H](O)[C@H](Cc1ccccc1)NC(=O)O[C@@H]1C[C@@H]2[C@H](O)CO[C@@H]2C1)S(=O)(=O)c1ccc(N)cc1 [Inhibitor 123, (3S,3aR,5R,6aR)-3-Hydroxyhexahydro-2H-cyclopenta[b]furan-5-yl [(2S,3R)-4-(4-Amino-N-isobutylphenylsulfonamido)-3-hydroxy-1-phenylbutan-2-yl]carbamate] the “loss of antiviral activity (higher IC50) compared to 22” value (from here on “loss … compared to 22”) [1] was 3 fold.

Work on CC(C)(C)NC(=O)[C@@H]1C[C@@H]2CCCC[C@@H]2CN1C[C@@H](O)[C@H](Cc1ccccc1)NC(=O)[C@H](CC(N)=O)NC(=O)c1ccc2ccccc2n1 [SQV, saquinavir, reference compound] yielded an IC50 [1, 8] of 15 nM.

Molecule “((3R,3aS,5R,6aR)-3-Methoxyhexahydro-2H-cyclopenta[b]furan-5-yl [(2S,3R)-3-Hydroxy-4-(N-iso-butyl-4-methoxyphenylsulfonamido)-1-phenylbutan-2-yl]-carbamate [Inhibitor 19d]” has an IC50 ([1]; Table 1, MT-2 cells, 100 TCID50s of HIV-1LAI, MTT assay, means of at least two experiments, read-out: IC50) of 3.4 nM and a Ki [2, 9] of 0.006 nM.

Work on COC(=O)N[C@@H]1CO[C@@H]2C[C@H](OC(=O)N[C@@H](Cc3ccccc3)[C@H](O)CN(CC(C)C)S(=O)(=O)c3ccc(OC)cc3)C[C@H]12 [drawing 23] yielded an IC50 [1, 10] of 1.6 nM.

With CC(C)CN(C[C@@H](O)[C@H](Cc1ccccc1)NC(=O)O[C@H]1CCOC1)S(=O)(=O)c1ccc(N)cc1 [APV, amprenavir, reference compound] the IC50 [3] was 380 ± 30 nM, the “fold change of IC50” value ([3]; Table 3, HIV-1MDR/G compared to wild-type HIV-1ERS104pre) was 12 and the IC50 ([4]; Human immunodeficiency virus 1, Table 3, HIV-1ERS104pre (wild type), PHA-PBMs, p24 Gag, read-out: IC50 ± SDs) was 30 ± 6 nM. The IC50 [5] was 260 ± 30 nM, the “fold change of IC50” value ([5]; Table 3, HIV-1MDR/C compared to wild-type HIV-1ERS104pre) was 9 and the IC50 [6] was 190 ± 60 nM. The “fold change of IC50” value ([6]; Table 3, HIV-1MDR/TM compared to wild-type HIV-1ERS104pre) was 6, the IC50 [7] was 930 ± 280 nM and the “fold change of IC50” value ([7]; Table 3, HIV-1MDR/B compared to wild-type HIV-1ERS104pre) was 31.

With CC(C)CN(C[C@@H](O)[C@H](Cc1ccccc1)NC(=O)O[C@@H]1C[C@@H]2[C@H](O)CO[C@@H]2C1)S(=O)(=O)c1ccc(CO)cc1 [Inhibitor 23, (3S,3aR,5R,6aR)-3-Hydroxyhexahydro-2H-cyclopenta[b]furan-5-yl {(2S,3R)-3-Hydroxy-4-[4-(hydroxymethyl)-N-iso-butylphenylsulfonamido]-1-phenylbutan-2-yl}carbamate] the IC50 [1, 8] was 19 nM, the “loss … compared to 22” value [1] was 4 fold and the Ki ([2]; Table 1, read-out: Ki) was 0.06 nM.

Work on COc1ccc(S(=O)(=O)N(CC(C)C)C[C@@H](O)[C@H](Cc2ccccc2)NC(=O)O[C@@H]2C[C@@H]3[C@@H](C)CO[C@@H]3C2)cc1 [Inhibitor 19f, (3R,3aR,5R,6aR)-3-Methylhexahydro-2H-cyclopenta[b]furan-5-yl [(2S,3R)-3-Hydroxy-4-(N-isobutyl-4-methoxyphenylsulfonamido)-1-phenylbutan-2-yl]carbamate] yielded a Ki ([2]; Table 1, read-out: Ki) of 0.017 nM.

Work on COc1ccc(S(=O)(=O)N(CC(C)C)C[C@@H](O)[C@H](Cc2ccccc2)NC(=O)O[C@@H]2C[C@@H]3[C@H](N(C)C)CO[C@@H]3C2)cc1 yielded a Ki ([2]; Table 2, read-out: Ki) of 12.7 nM.

In the case of COc1ccc(S(=O)(=O)N(CC(C)C)C[C@@H](O)[C@H](Cc2ccccc2)NC(=O)O[C@@H]2C[C@@H]3[C@H](NC(C)=O)CO[C@@H]3C2)cc1 [Inhibitor 19g, (3S,3aR,5R,6aR)-3-acetamidohexahydro-2H-cyclopenta[b]furan-5-yl (2S,3R)-3-hydroxy-4-(N-isobutyl-4-methoxyphenylsulfonamido)-1-phenylbutan-2-yl-carbamate], the IC50 [1, 10] is reported as 21.5 nM, the IC50 [1, 11] is reported as 25 nM and the Ki [2, 9] is reported as 0.007 nM.

With COc1ccc(S(=O)(=O)N(CC(C)C)C[C@@H](O)[C@H](Cc2ccccc2)NC(=O)O[C@@H]2C[C@@H]3C(=O)CO[C@@H]3C2)cc1 [Inhibitor 19a, (3aS,5R,6aR)-3-oxohexahydro-2H-cyclopenta[b]furan-5-yl (2S,3R)-3-hydroxy-4-(N-isobutyl-4-methoxyphenylsulfonamido)-1-phenylbutan-2-ylcarbamate] the IC50 ([1]; Human immunodeficiency virus 1, MT2, Table 1, MT-2 cells, 100 TCID50s of HIV-1LAI, MTT assay, means of at least two experiments, read-out: IC50) was 14 nM and the Ki ([2]; Table 1, read-out: Ki) was 0.95 nM.

For COc1ccc(S(=O)(=O)N(CC(C)C)C[C@@H](O)[C@H](Cc2ccccc2)NC(=O)O[C@@H]2C[C@H]3[C@@H](C2)OC[C@H]3OC(=O)N(C)C)cc1, the IC50 [1, 10] was 4.7 nM and the Ki ([2]; Table 2, read-out: Ki) was 0.02 nM.

COc1ccc(S(=O)(=O)N(CC(C)C)C[C@@H](O)[C@H](Cc2ccccc2)NC(=O)O[C@@H]2C[C@@H]3[C@H](C)CO[C@@H]3C2)cc1 [Inhibitor 19e, (3S,3aR,5R,6aR)-3-Methylhexahydro-2H-cyclopenta[b]furan-5-yl [(2S,3R)-3-Hydroxy-4-(N-iso-butyl-4-methoxyphenylsulfonamido)-1-phenylbutan-2-yl]carbamate] was tested, and the IC50 [1, 8] was 25 nM, the “loss … compared to 22” value [1] was 5 fold and the Ki ([2]; Table 1, read-out: Ki) was 0.02 nM and 0.16 nM.

Work on COC(=O)N[C@H]1CO[C@@H]2C[C@H](OC(=O)N[C@@H](Cc3ccccc3)[C@H](O)CN(CC(C)C)S(=O)(=O)c3ccc(OC)cc3)C[C@H]12 [drawing 24] yielded an IC50 [1, 10] of 4.6 nM and a Ki ([2]; Table 2, read-out: Ki) of 0.004 nM.

In the case of COc1ccc(S(=O)(=O)N(CC(C)C)C[C@@H](O)[C@H](Cc2ccccc2)NC(=O)O[C@@H]2C[C@@H]3[C@H](OC)CO[C@@H]3C2)cc1 [Inhibitor 19b, (3S,3aS,5R,6aR)-3-Methoxyhexahydro-2H-cyclopenta[b]furan-5-yl [(2S,3R)-3-Hydroxy-4-(N-iso-butyl-4-methoxyphenylsulfonamido)-1-phenylbutan-2-yl]carbamate], the IC50 [1, 8] is reported as 37 nM, the IC50 [1, 11] is reported as 37 nM and the “loss … compared to 22” value [1] is reported as ~5 fold and ~7 fold. For the same molecule, the Ki ([2]; Table 1, read-out: Ki) was 0.39 nM and the Ki ([2]; read-out: Ki) was 0.95 nM.

Work on CON[C@@H]1CO[C@@H]2C[C@H](OC(=O)N[C@@H](Cc3ccccc3)[C@H](O)CN(CC(C)C)S(=O)(=O)c3ccc(OC)cc3)C[C@H]12 yielded an IC50 [1, 10] of 81.5 nM and a Ki ([2]; Table 2, read-out: Ki) of 0.088 nM.

CC(C)CN(C[C@@H](O)[C@H](Cc1ccccc1)NC(=O)O[C@@H]1C[C@@H]2[C@@H](O)CO[C@@H]2C1)S(=O)(=O)c1ccc(N)cc1 [Inhibitor 26, (3R,3aR,5R,6aR)-3-Hydroxyhexahydro-2H-cyclopenta[b]furan-5-yl [(2S,3R)-4-(4-Amino-N-iso-butylphenylsulfonamido)-3-hydroxy-1-phenylbutan-2-yl]-carbamate] was tested, and the IC50 [1, 8] was 36 nM and the Ki ([2]; Table 1, read-out: Ki) was 0.006 nM.

Work on COc1ccc(S(=O)(=O)N(CC(C)C)C[C@@H](O)[C@H](Cc2ccccc2)NC(=O)O[C@@H]2C[C@@H]3[C@@H](NS(C)(=O)=O)CO[C@@H]3C2)cc1 [Inhibitor 19j, (3R,3aR,5R,6aR)-3-(methylsulfonamido)hexahydro-2H-cyclopenta[b]furan-5-yl ((2S,3R)-3-hydroxy-4-(N-isobutyl-4-methoxyphenylsulfonamido)-1-phenylbutan-2-yl) carbamate] yielded an IC50 [1, 10] of 50 nM and a Ki ([2]; Table 2, read-out: Ki) of 0.18 nM.

In the case of COc1ccc(S(=O)(=O)N(CC(C)C)C[C@@H](O)[C@H](Cc2ccccc2)NC(=O)O[C@@H]2C[C@@H]3[C@H](O)CO[C@@H]3C2)cc1 [Inhibitor 22, (3S,3aR,5R,6aR)-3-hydroxyhexahydro-2H-cyclopenta[b]furan-5-yl (2S,3R)-3-hydroxy-4-(4-(methoxy)-N-isobutylphenylsulfonamido)-1-phenylbutan-2-ylcarbamate], the IC50 [3] is reported as 270 ± 20 nM, the IC50 [1, 8] is reported as 5 nM and the IC50 [1, 11] is reported as 5 nM. For the same molecule, the IC50 ([1]; Table 1, MT-2 cells, 100 TCID50s of HIV-1LAI, MTT assay, means of at least two experiments) was 7 nM, the IC50 ([4]; Human immunodeficiency virus 1) was 20 nM and the IC50 ([4]; Human immunodeficiency virus 1, read-out: IC50 ± SDs) was 20 ± 4 nM. The IC50 [5] was > 1000 nM, the IC50 [6] was 41 ± 4 nM and the IC50 [7] was > 1000 nM.

COc1ccc(S(=O)(=O)N(CC(C)C)C[C@@H](O)[C@H](Cc2ccccc2)NC(=O)O[C@@H]2C[C@@H]3[C@H](NS(C)(=O)=O)CO[C@@H]3C2)cc1 [Inhibitor 19i, (3S,3aR,5R,6aR)-3-(methylsulfonamido)hexahydro-2H-cyclopenta[b]furan-5-yl ((2S,3R)-3-hydroxy-4-(N-isobutyl-4-methoxyphenylsulfonamido)-1-phenylbutan-2-yl)-carbamate] was tested, and the IC50 [1, 10] was 28 nM and the Ki ([2]; Table 2, read-out: Ki) was 0.017 nM and 0.032 nM.

With COc1ccc(S(=O)(=O)N(CC(C)C)C[C@@H](O)[C@H](Cc2ccccc2)NC(=O)O[C@@H]2C[C@@H]3[C@@H](NC(C)=O)CO[C@@H]3C2)cc1 [Inhibitor 19h, (3′R,3′aR,5′R,6′aR)-3-acetamidohexahydro-2H-cyclopenta[b]furan-5-yl (2S,3R)-3-hydroxy-4-(N-isobutyl-4-methoxyphenylsulfonamido)-1-phenylbutan-2-yl-carbamate] the IC50 [1, 10] was 31 nM, the IC50 [1, 11] was 31 nM and the Ki ([2]; Table 2, read-out: Ki) was 0.0075 nM. For the same molecule, the Ki [2, 9] was 0.007 nM.
